In patent publication US20240175865A1, “IMPROVED PROCESSES FOR RATIONALLY-DESIGNING AND PRODUCING BIOMOLECULES” (priority 2020, published 2024):
Read-outs that look alike come from different tables or passages of the source.

What was measured:
[1] = biological target: T1, Escherichia coli EF-Tu, unmodified (SEQ ID NO: 3) (Escherichia coli, UniProt P0CE47); assay: Nucleotide dissociation rate, stopped-flow, unmodified EF-Tu; assay type: binding; conditions: 20° C., TAKM7
T1 construct: His6 tag (C-terminal SHHHHHH in the listing) (C)

[2] = biological target: T2, Streptococcus pneumoniae MalX variant T243C, MDCC conjugate (parent MalX SEQ ID NO: 1) (Streptococcus pneumoniae serotype 4, UniProt P59213, I417L/S91N/T250C); assay: biochemical; assay type: binding
T2 construct: made in house; host or cells: Escherichia coli BL21(DE3) gold

[3] = biological target: Streptococcus pneumoniae MalX, unlabeled protein (SEQ ID NO: 1); conditions: unlabeled protein (ABBOTT et al. 2010); read-out: measured affinity (KD); cited from earlier work
[4] = biological target: Streptococcus pneumoniae MalX variant A174C, MDCC conjugate (parent MalX SEQ ID NO: 1) (Streptococcus pneumoniae, UniProt P59213, A181C); assay type: binding; conditions: 1 μM biosensor
[5] = biological target: Streptococcus pneumoniae MalX variant E312C, MDCC conjugate (parent MalX SEQ ID NO: 1) (Streptococcus pneumoniae, UniProt P59213, E319C); assay type: binding; conditions: 1 μM biosensor
[6] = system: Yersinia enterocolitica TogB, unmodified protein (SEQ ID NO: 2); conditions: UV-difference spectroscopy; cited from earlier work
[7] = system: Yersinia enterocolitica TogB, unmodified protein (SEQ ID NO: 2); conditions: isothermal titration calorimetry; cited from earlier work
[8] = biological target: T2, Streptococcus pneumoniae MalX variant T243C, MDCC conjugate (parent MalX SEQ ID NO: 1); assay type: binding; conditions: 1 μM biosensor, 20 μM maltose

Nc1nc2c(ncn2[C@@H]2O[C@H](COP(=O)(O)OP(=O)(O)O)[C@@H](O)[C@H]2O)c(=O)[nH]1 [GDP, guanosine diphosphate]
koff ([1]; mantGDP complex mixed with excess GTP/GDP, read-out: GDP Dissociation Rate Koff): 0.002 ± 0.001 s⁻¹

Nc1nc2c(ncn2[C@@H]2O[C@H](COP(=O)(O)OP(=O)(O)OP(=O)(O)O)[C@@H](O)[C@H]2O)c(=O)[nH]1 [GTP, guanosine triphosphate]
koff ([1]; mantGTP complex mixed with excess GTP/GDP, read-out: GTP Dissociation Rate koff): 0.04 ± 0.01 s⁻¹

OC[C@H]1O[C@H](O[C@H]2[C@H](O)[C@@H](O)[C@@H](O[C@H]3[C@H](O)[C@@H](O)C(O)O[C@@H]3CO)O[C@@H]2CO)[C@H](O)[C@@H](O)[C@@H]1O (stereo partly shown) [M3, Maltotriose]
Kd [2]: 0.6 ± 0.2 µM
Kd [3]: 0.8 ± 0.125 µM
fluorescence change upon binding M3 ([4]; 20 μM M3): did not show a fluorescence change
fluorescence change upon binding M3 ([5]; 20 μM M3): did not show a fluorescence change

O=C(O)[C@H]1O[C@H](O[C@@H]2[C@H](O)[C@@H](O)C(O)O[C@@H]2C(=O)O)[C@H](O)[C@@H](O)[C@H]1O (stereo partly shown) [digalUA, digalacturonic acid]
Kd [6]: 11.8 ± 0.5 µM
Kd [7]: 16 ± 2 µM

OC[C@H]1O[C@H](O[C@H]2[C@H](O)[C@@H](O)C(O)O[C@@H]2CO)[C@H](O)[C@@H](O)[C@@H]1O (stereo partly shown) [maltose, Maltose]
fluorescence change in presence of non-specific ligand (maltose) [8]: little to no fluorescence change
fluorescence change in presence of non-specific ligand (maltose) ([4]; 20 μM maltose): little to no fluorescence change
fluorescence change in presence of non-specific ligand (maltose) ([5]; 20 μM maltose): little to no fluorescence change

O=C(O)C1=C[C@H](O)[C@@H](O)[C@@H](O[C@@H]2[C@H](O)[C@@H](O)C(O)O[C@@H]2C(=O)O)O1 (stereo partly shown) [unsatdigalUA, 4,5-unsaturated digalacturonic acid]
Kd [6]: 3.2 ± 0.1 µM
Kd [7]: 5 ± 1 µM
